Biological target: T1, Human complement C1s enzyme (Homo sapiens, UniProt P09871)
T1 sequence (P09871 438-688 limits assumed): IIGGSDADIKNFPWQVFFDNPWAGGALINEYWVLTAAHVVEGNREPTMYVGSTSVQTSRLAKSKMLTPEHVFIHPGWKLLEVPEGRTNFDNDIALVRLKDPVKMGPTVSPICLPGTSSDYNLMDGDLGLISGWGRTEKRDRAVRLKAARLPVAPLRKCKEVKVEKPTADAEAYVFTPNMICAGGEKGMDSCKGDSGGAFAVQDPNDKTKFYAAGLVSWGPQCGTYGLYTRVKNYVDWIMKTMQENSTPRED
T1 sequence (P09871 16-437 partner limits assumed): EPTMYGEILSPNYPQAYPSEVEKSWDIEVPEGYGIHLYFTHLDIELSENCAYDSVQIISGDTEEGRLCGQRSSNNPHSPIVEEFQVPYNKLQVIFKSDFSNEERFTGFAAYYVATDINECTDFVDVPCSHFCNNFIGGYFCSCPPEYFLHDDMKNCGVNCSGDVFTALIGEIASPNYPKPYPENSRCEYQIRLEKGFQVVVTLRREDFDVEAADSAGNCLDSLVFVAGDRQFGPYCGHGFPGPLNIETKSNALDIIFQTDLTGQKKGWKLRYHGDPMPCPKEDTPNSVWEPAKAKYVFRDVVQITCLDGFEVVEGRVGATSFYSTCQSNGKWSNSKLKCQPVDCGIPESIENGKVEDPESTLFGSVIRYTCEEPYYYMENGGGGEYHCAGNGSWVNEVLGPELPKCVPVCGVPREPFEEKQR
Experiment: Human C1s enzyme assay
Type: biochemical
Details: human complement C1s enzyme 1.16 nM, substrate Z-L-Lys-SBzl 100 μM, 5 min preincubation; read-out: IC50 (Stars), C1s Inhibiting Activity
Protocol: Other standard complement assays are also available.
Human complement C1s enzyme (purified from human serum, Complement Technology, Inc.) at 1.16 nM final concentration was incubated with test compound at various concentrations for 5 min at room temperature in 50 mM Tris, 1 M NaCl, pH 7.5. A synthetic substrate Z-L-Lys-SBzl and DTNB (Ellman's reagent) were added to final concentrations of 100 μM each. Absorbance at 405 nm (A405) was recorded at 30 second intervals for 30 min using a microplate spectrophotometer. IC50 values were calculated by nonlinear regression of complement C1 s reaction rates as a function of test compound concentration.
ND indicates a compound for which the IC50 value is not determined.

Compound	IC50 [µM]
Cc1ccc(Oc2cccc(C(=O)NCC(=O)N3C[C@H](OC(F)F)C[C@H]3C(=O)N[C@H](C)c3cc4cnccc4[nH]3)c2)c(F)c1 [Compound 312, (2S,4R)-N-((R)-1-(1H-pyrrolo[3,2-c]pyridin-2-yl)ethyl)-4-(difluoromethoxy)-1-((3-(2-fluoro-4-methylphenoxy)benzoyl)glycyl) pyrrolidine-2-carboxamide]	< 0.1
C[C@@]12C[C@@H]1N(C(=O)CNC(=O)CCCOc1ccccc1)[C@H](C(=O)NCc1cc3cnccc3[nH]1)C2 [Compound 58, (1S,3S,5S)-N-((1H-pyrrolo[3,2-c]pyridin-2-yl)methyl)-5-methyl-2-((4-phenoxybutanoyl)glycyl)-2-azabicyclo[3.1.0]hexane-3-carboxamide]	< 0.1
CN1CCc2cc(CNC(=O)[C@@H]3C[C@@H](OC(F)F)CN3C(=O)CNC(=O)c3ccc4c(c3)Oc3ccccc3S4)sc2C1 [Compound 346, (2S,4R)-4-(difluoromethoxy)-N-((6-methyl-4,5,6,7-tetrahydrothieno[2,3-c]pyridin-2-yl)methyl)-1-((phenoxathiine-3-carbonyl)glycyl) pyrrolidine-2-carboxamide]	> 1
COC[C@@H]1C[C@@H](C(=O)NCc2cc3cnccc3[nH]2)N(C(=O)CNC(=O)c2cccc(Oc3ccc(C)cc3F)c2)C1 (relative stereo) [Compound 318, (2S,4R*)-N-((1H-pyrrolo[3,2-c]pyridin-2-yl)methyl)-1-((3-(2-fluoro-4-methylphenoxy)benzoyl)glycyl)-4-(methoxymethyl)pyrrolidine-2-carboxamide]	< 0.1
O=C(NCC(=O)N1C[C@H](OC(F)F)C[C@H]1C(=O)NCc1cc2cnccc2[nH]1)c1cccc(N2Cc3ccccc3C2)c1 [Compound 378, (2S,4R)-N-((1H-pyrrolo[3,2-c]pyridin-2-yl)methyl)-4-(difluoromethoxy)-1-((3-(isoindolin-2-yl)benzoyl)glycyl)pyrrolidine-2-carboxamide]	< 0.1
Cc1cc(C(=O)NCC(=O)N2C[C@H](OC(F)F)C[C@H]2C(=O)N[C@H](C)c2cc3cnccc3[nH]2)ccc1Oc1ccc(F)cc1 [Compound 143, (2S,4R)-N-((R)-1-(1H-pyrrolo[3,2-c]pyridin-2-yl)ethyl)-4-(difluoromethoxy)-1-((4-(4-fluorophenoxy)-3-methylbenzoyl)glycyl)pyrrolidine-2-carboxamide]	< 0.1
Cc1ccc(Oc2cccc(C(=O)NCC(=O)N3[C@H]4C[C@@]4(C)C[C@H]3C(=O)N[C@H](C)c3cc4cnccc4[nH]3)c2)c(F)c1 [Compound 320, (1S,3S,5S)-N-((R)-1-(1H-pyrrolo[3,2-c]pyridin-2-yl)ethyl)-2-((3-(2-fluoro-4-methylphenoxy)benzoyl)glycyl)-5-methyl-2-azabicyclo[3.1.0]hexane-3-carboxamide]	< 0.1
C[C@@H](NC(=O)[C@@H]1C[C@]2(C)C[C@@H]2N1C(=O)CN1Cc2cc(-c3ccc(F)cc3)ccc2C1=O)c1cc2cnccc2[nH]1 [Compound 116, (1S,3S,5S)-N-((R)-1-(1H-pyrrolo[3,2-c]pyridin-2-yl)ethyl)-2-(2-(5-(4-fluorophenyl)-1-oxoisoindolin-2-yl)acetyl)-5-methyl-2-azabicyclo[3.1.0]hexane-3-carboxamide]	> 1
COC[C@@]1(F)C[C@@H](C(=O)NCc2cc3cnccc3[nH]2)N(C(=O)CNC(=O)c2ccc3oc4ccccc4c3c2)C1 [Compound 201, (2S,4R)-N-((1H-pyrrolo[3,2-c]pyridin-2-yl)methyl)-1-((dibenzo[b,d]furan-2-carbonyl)glycyl)-4-fluoro-4-(methoxymethyl)pyrrolidine-2-carboxamide]	< 0.1
O=C(NCC(=O)N1C[C@H](OC(F)F)C[C@H]1C(=O)O)c1ccc(Oc2ccccc2)cc1 [Compound 118, (2S,4R)-4-(difluoromethoxy)-1-((4-phenoxybenzoyl)glycyl) pyrrolidine-2-carboxylic acid]	> 1
O=C(NCC(=O)N1C[C@H](OC(F)F)C[C@H]1C(=O)NCc1cc2cnccc2[nH]1)c1cncc(N2CCOCC2)n1 [Compound 380, N-(2-((2S,4R)-2-(((1H-pyrrolo[3,2-c]pyridin-2-yl)methyl)carbamoyl)-4-(difluoromethoxy)pyrrolidin-1-yl)-2-oxoethyl)-6-morpholinopyrazine-2-carboxamide]	> 1
C[C@@]12C[C@@H]1N(C(=O)CNC(=O)CCCOc1ccccc1)[C@H](C(=O)NCCCn1ccnc1)C2 [Compound 59, (1S,3S,5S)-N-(3-(1H-imidazol-1-yl)propyl)-5-methyl-2-((4-phenoxybutanoyl)glycyl)-2-azabicyclo[3.1.0]hexane-3-carboxamide]	> 1
CC1(C)c2ccccc2-c2cc(C(=O)NCC(=O)N3C[C@H](OC(F)F)C[C@H]3C(=O)NCc3cc4cnccc4[nH]3)ccc21 [Compound 301, (2S,4R)-N-((1H-pyrrolo[3,2-c]pyridin-2-yl)methyl)-4-(difluoromethoxy)-1-((9,9-dimethyl-9H-fluorene-3-carbonyl)glycyl) pyrrolidine-2-carboxamide]	< 0.1

Continued, values first:

IC50 [µM]	Compound
< 0.1	O=C(NCC(=O)N1CC2(C[C@H]1C(=O)NCc1cc3cnccc3[nH]1)OCCO2)c1ccc2c(c1)Oc1ccccc1S2 [Compound 4, (S)-N-((1H-pyrrolo[3,2-c]pyridin-2-yl)methyl)-7-((phenoxathiine-3-carbonyl)glycyl)-1,4-dioxa-7-azaspiro[4.4]nonane-8-carboxamide]
< 0.1	Cc1ccc(Oc2cccc(C(=O)NCC(=O)N3CC4(C[C@H]3C(=O)N[C@H](C)c3cc5cnccc5[nH]3)OCCO4)c2)c(F)c1 [Compound 321, (S)-N-((R)-1-(1H-pyrrolo[3,2-c]pyridin-2-yl)ethyl)-7-((3-(2-fluoro-4-methylphenoxy)benzoyl)glycyl)-1,4-dioxa-7-azaspiro[4.4]nonane-8-carboxamide]
0.1 to 1	Cc1ccc(-c2cnc(C(=O)NCC(=O)N3CC4(C[C@H]3C(=O)NCc3cc5cnccc5[nH]3)OCCO4)c(F)c2)cc1 [Compound 108, (S)-N-((1H-pyrrolo[3,2-c]pyridin-2-yl)methyl)-7-((3-fluoro-5-(p-tolyl)picolinoyl)glycyl)-1,4-dioxa-7-azaspiro[4.4]nonane-8-carboxamide]
< 0.1	C[C@@H](NC(=O)[C@@H]1C[C@@H](c2ncco2)CN1C(=O)CNC(=O)c1ccc2c(c1)Oc1ccccc1S2)c1cc2cnccc2[nH]1 [Compound 177, (2S,4R)-N-((R)-1-(1H-pyrrolo[3,2-c]pyridin-2-yl)ethyl)-4-(oxazol-2-yl)-1-((phenoxathiine-3-carbonyl)glycyl)pyrrolidine-2-carboxamide]
< 0.1	CC(NC(=O)[C@@H]1CC2(CN1C(=O)CNC(=O)c1ccc3c(c1)Oc1ccccc1S3)OCCO2)c1cc2cnccc2[nH]1 (stereo in doubt) [Compound 102, (S)-N-((S)-1-(1H-pyrrolo[3,2-c]pyridin-2-yl)ethyl)-7-((phenoxathiine-3-carbonyl)glycyl)-1,4-dioxa-7-azaspiro[4.4]nonane-8-carboxamide]
> 1	O=C(NCC(=O)N1C[C@H](OC(F)F)C[C@H]1C(=O)NCc1ccc2[nH]ncc2c1)c1ccc2c(c1)Oc1ccccc1S2 [Compound 192, (2S,4R)-N-((1H-indazol-5-yl)methyl)-4-(difluoromethoxy)-1-((phenoxathiine-3-carbonyl)glycyl)pyrrolidine-2-carboxamide]
> 1	O=C(NCC(=O)N1C[C@H](OC(F)F)C[C@H]1C(=O)NCc1cnc2cn[nH]c2c1)c1ccc2c(c1)Oc1ccccc1S2 [Compound 262, (2S,4R)-N-((1H-pyrazolo[4,3-b]pyridin-6-yl)methyl)-4-(difluoromethoxy)-1-((phenoxathiine-3-carbonyl)glycyl)pyrrolidine-2-carboxamide]
> 1	O=C(NCC(=O)N1CC2(C[C@H]1C(=O)NCc1nc3cnccc3[nH]1)OCCO2)c1ccc2c(c1)Oc1ccccc1S2 [Compound 49, (S)-N-((1H-imidazo[4,5-c]pyridin-2-yl)methyl)-7-((phenoxathiine-3-carbonyl)glycyl)-1,4-dioxa-7-azaspiro[4.4]nonane-8-carboxamide]
> 1	O=C(NCC(=O)N1CC2(C[C@H]1C(=O)NCc1cc3ccncn3c1)OCCO2)c1ccc2c(c1)Oc1ccccc1S2 [Compound 276, (S)-7-((phenoxathiine-3-carbonyl)glycyl)-N-(pyrrolo[1,2-c]pyrimidin-6-ylmethyl)-1,4-dioxa-7-azaspiro[4.4]nonane-8-carboxamide]
> 1	O=C(NCC(=O)N1CC2(C[C@H]1C(=O)NCc1ncc[nH]1)OCCO2)c1ccc(Oc2ccccc2)cc1 [Compound 15, (S)-N-((1H-imidazol-2-yl)methyl)-7-((4-phenoxybenzoyl)glycyl)-1,4-dioxa-7-azaspiro[4.4]nonane-8-carboxamide]

Reference: patent publication US20260062443A1 (ALEXION PHARMACEUTICALS, INC., priority 2022, published 2026)
